This note sets out measurements from patent publication EP4120837B1, “INHIBITORS OF CYTOKININ OXIDASE DERIVED FROM 2-(3-PHENYLUREIDO)BENZAMIDE, USE THEREOF AND PREPARATIONS CONTAINING THESE DERIVATIVES” (Univerzita Palackého v Olomouci, priority 2020, dated 2021).

By IC50 is commonly meant the midpoint of a concentration-inhibition curve.

The target of one test is T1, ZmCKX1 (Zea mays, UniProt Q9T0N8).
T1 construct: made in house; host or cells: Yarrowia lipolytica
T1 sequence (Q9T0N8 19-534): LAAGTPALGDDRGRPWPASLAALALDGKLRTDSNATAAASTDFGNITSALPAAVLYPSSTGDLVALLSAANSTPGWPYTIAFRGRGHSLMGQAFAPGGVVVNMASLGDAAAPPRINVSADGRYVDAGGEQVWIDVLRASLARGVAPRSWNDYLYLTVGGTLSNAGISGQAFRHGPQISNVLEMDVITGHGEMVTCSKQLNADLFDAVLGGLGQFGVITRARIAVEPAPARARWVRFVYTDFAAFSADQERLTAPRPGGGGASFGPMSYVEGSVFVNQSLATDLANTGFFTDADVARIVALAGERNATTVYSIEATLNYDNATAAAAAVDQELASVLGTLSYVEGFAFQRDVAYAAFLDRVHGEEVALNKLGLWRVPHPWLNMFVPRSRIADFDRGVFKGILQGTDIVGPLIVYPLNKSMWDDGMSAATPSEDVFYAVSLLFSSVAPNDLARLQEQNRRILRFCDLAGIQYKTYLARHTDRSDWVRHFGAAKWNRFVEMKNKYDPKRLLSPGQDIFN
In words: ZmCKX1 inhibition, PMS/MTT assay. In kind it is biochemical, maize.
Conditions: not given
As to the method: The IC50 (concentration of a substance that causes 50% inhibition of the enzyme activity) was measured by PMS/MTT assay [phenazine methosulphate/3-(4,5-dimethylthiazol-2-yl)-2,5-diphenyltetrazolium bromide]. The assay was performed in 96-well microtiter plates. Each well contained a reaction mixture with a final concentration of: 0.1 M KH2PO4, pH 7.4, 1 mM MTT, 0.2 mM PMS, tested substance in a concentration range of 0.1 nM - 1 µM and 10 µM N^6-isopentenyladenine (iP) as a substrate. To this reaction mixture 100 µL of medium containing the active enzyme ZmCKX1 was added. The enzyme was produced by the yeast Yarrowia lipolytica and isolated according to the protocol (Kopečný D. et al., 2005, […] 87:1011-1022). The plates were incubated for 30 min at 37 °C and the enzymatic reaction was stopped by the addition of 25 µL of 35% acetic acid. Then, the absorbance at 578 nm was measured on a spectrophotometer, and the absorbance of the sample without the substrate was substracted as a reference value. The IC50 value was determined from the concentration-dependent curves in GraphPad Prism software. The values shown in Table 1 are the average of at least two measurements each performed in three repetitions. […] The substance 3,5DCl-Ph-U is 1-(3,5-dichlorophenyl)-3-phenylurea, which we have been prepared to compare its inhibitory activity with the compounds presented in the present invention. Addition of the amide group to the unsubstituted phenyl ring of this substance gives the compound 2AD-3,5DC, which has 42-fold better inhibitory activity with the ZmCKX1 enzyme than 3,5DCl-Ph-U. F-INCYDE ((2-fluoro-9H-purin-6-yl)-(3-methoxyphenyl)amine), CPPU (1-(2-chloropyridin-4-yl)-3-phenylurea), and DCPPU (1-(2,6-dichloropyridin-4-yl)-3-phenylurea) are substances known in the prior art.
Consider `NNC(=O)c1ccc(Br)cc1NC(=O)Nc1cc(Cl)cc(Cl)c1` [compound 45, 1-(5-Bromo-2-hydrazinocarbonylphenyl)-3-(3,5-dichlorophenyl)-urea], for which the IC50 came to 0.02 µM.
For `O=C(Nc1cc(Cl)cc(Cl)c1)Nc1cc(Br)ccc1C(=O)NCCO` [compound 48, 4-Bromo-2-[3-(3,5-dichlorophenyl)ureido]-N-(2-hydroxy-ethyl)benzamide], the IC50 was determined as 0.005 µM.
`NCCNC(=O)c1ccc(Br)cc1NC(=O)Nc1cc(Cl)cc(Cl)c1` [compound 55, N-(2-Aminoethyl)-4-bromo-2-[3-(3,5-dichlorophenyl)ureido]benzamide] showed an IC50 of 0.01 µM.

The same test, now with this note: 10 µM iP as substrate, pH 7.4, 30 min at 37 °C; average of at least two measurements; read-out: IC50 (µM) ZmCKX1.
Consider `CCCNC(=O)c1ccc(OC)cc1NC(=O)Nc1cc(Cl)cc(Cl)c1` [compound 43, 2-[3-(3,5-dichlorophenyl)ureido]-4-methoxy-N-propylbenzamide], for which the IC50 was found to be 0.004 µM.
Turning to `NNC(=O)c1ccccc1NC(=O)Nc1cc(Cl)cc(Cl)c1` [compound 44, 1-(3,5-dichlorophenyl)-3-(2-hydrazinocarbonylphenyl)-urea], the IC50 stood at 0.074 µM.
`COc1ccc(C(=O)NN)c(NC(=O)Nc2cc(Cl)cc(Cl)c2)c1` [compound 46, 1-(3,5-dichlorophenyl)-3-(2-hydrazinocarbonyl-5-methoxyphenyl)-urea]: the IC50 was determined as 0.018 µM.
Consider `O=C(Nc1cc(Cl)cc(Cl)c1)Nc1ccccc1C(=O)NCCO` [compound 47, 2-[3-(3,5-dichlorophenyl)ureido]-N-(2-hydroxy-ethyl)benzamide], for which the IC50 turned out to be 0.022 µM.
On to `COc1ccc(C(=O)NCCO)c(NC(=O)Nc2cccc(F)c2)c1` [compound 49, 2-[3-(3-fluorophenyl)ureido]-4-methoxy-N-(2-hydroxy-ethyl)benzamide], for which the IC50 was 0.04 µM.
As to `COc1ccc(C(=O)NCCO)c(NC(=O)Nc2cc(Cl)cc(Cl)c2)c1` [compound 50, 2-[3-(3,5-dichlorophenyl)ureido]-4-methoxy-N-(2-hydroxyethyl)benzamide], the IC50 was found to be 0.003 µM.
`O=C(Nc1cccc(Cl)c1)Nc1ccccc1C(=O)NCCCO` [compound 51, 2-[3-(3-chlorophenyl)ureido]-N-(3-hydroxy-propyl)benzamide]: the IC50 is 0.15 µM.
On to `COc1ccc(C(=O)NCCCO)c(NC(=O)Nc2cc(Cl)cc(Cl)c2)c1` [compound 53, 2-[3-(3,5-dichlorophenyl)ureido]-4-methoxy-N-(3-hydroxy-propyl)benzamide], for which the IC50 stood at 0.02 µM.
Consider `COc1ccc(C(=O)NCCN)c(NC(=O)Nc2cc(Cl)cc(Cl)c2)c1` [compound 56, 2-[3-(3,5-dichlorophenyl)ureido]-4-methoxy-N-(2-amino-ethyl)benzamide], for which the half-maximal inhibitory concentration (IC50) is 0.013 µM.
Same read-out and setting: the figure for `NCCNC(=O)c1ccc(OC(F)(F)F)cc1NC(=O)Nc1cc(Cl)cc(Cl)c1` [compound 57, 2-[3-(3,5-dichlorophenyl)ureido]-4-trifluoromethoxy-N-(2-amino-ethyl)benzamide] is 0.008 µM.

Staying with this test, now noted: read-out: IC50 (µM) ZmCKX1; 10 µM iP as substrate, pH 7.4, 30 min at 37 °C; average of at least two measurements.
Consider `O=C(Nc1cccc(Cl)c1)Nc1cc(Br)ccc1C(=O)NCCCO` [compound 52, 4-bromo-2-[3-(3-chlorophenyl)ureido]-N-(3-hydroxy-propyl)benzamide], for which the IC50 was found to be 0.08 µM.
Take `NCCNC(=O)c1ccc(Br)cc1NC(=O)Nc1cccc(Cl)c1` [compound 54, 4-bromo-2-[3-(3-chlorophenyl)ureido]-N-(2-amino-ethyl)benzamide]: the IC50 was determined as 0.035 µM.
